Broadly, the melting point is the temperature, or range, at which the solid turns liquid.

Values joined by “and” are separate entries in the source; they are usually repeats but may differ in a detail not shown here. Equal entries are not always repeated.

A short description of data set [1]: UV absorption (λmax, εmax) in solution. It counts as physicochemical.

`CCCCOC(=O)c1ccc(Nc2nc(Nc3ccc(C(=O)OCCCC)cc3)nc(-c3cccn3C(c3ccccc3)c3ccccc3)n2)cc1` [Example 7, 2-(1-benzydryl-1H-pyrrol-2-yl)-4,6-bis[4-(butoxycarbonyl)phenylamino]-1,3,5-triazine] came in with a melting point of 80 to 82 °C. In data set [1] (ethanol), the “UV λmax” value is recorded as 315 nm and the εmax is 81000 M⁻¹ cm⁻¹.

As to `c1ccc(Cn2cccc2-c2nc(Nc3ccc(-c4ccccc4)cc3)nc(Nc3ccc(-c4ccccc4)cc3)n2)cc1` [Example 3, 2-(1-benzyl-1H-pyrrol-2-yl)-4,6-bis(biphenyl-4-ylamino)-1,3,5-triazine], the melting point was in the range of 185 to 186 °C. Besides, in data set [1] (ethanol), the “UV λmax” value worked out at 309 nm and the εmax is 73000 M⁻¹ cm⁻¹.

`CCOC(=O)/C=C/c1ccc(Nc2nc(Nc3ccc(/C=C/C(=O)OCC)cc3)nc(-c3cccn3Cc3ccccc3)n2)cc1` [Example 14, 2-(1-benzyl-1H-pyrrol-2-yl)-4,6-bis[4-((E)-3-ethoxy-3-oxoprop-1-enyl)phenylamino]-1,3,5-triazine]: in data set [1] (MeOH), the “UV λmax” value was found to be 336 nm and the εmax turned out to be 57000 M⁻¹ cm⁻¹.

Molecule `CCCCC(CC)COc1ccc(-c2nc(-c3ccc(OCC(CC)CCCC)cc3O)nc(-c3cccn3Cc3ccccc3)n2)c(O)c1` (stereo not drawn) [Example 1, 2-(1-benzyl-1H-pyrrol-2-yl)-4,6-bis[4-(2-ethylhexyloxy)-2-hydroxyphenyl]-1,3,5-triazine] returned a melting point of 66 to 68 °C. Also, in data set [1] (chloroform), the εmax amounted to 66000 M⁻¹ cm⁻¹ and the λmax was 350-352 nm.

`Oc1ccc(-c2nc(-c3ccc(O)cc3O)nc(-c3cccn3Cc3ccccc3)n2)c(O)c1` [Example 1 b), 2-(1-benzyl-1H-pyrrol-2-yl)-4,6-bis(2,4-dihydroxyphenyl)-1,3,5-triazine] yielded a melting point greater than 275 °C.

On to “2-(1-benzyl-1H-pyrrol-2-yl)-4,6-bis[4-(H-imidazo[1,2-a]pyridin-2-yl)phenylamino]-1,3,5-triazine [Example 10]”, for which, in data set [1] (DMSO), the “UV λmax” value is listed as 338 nm and the εmax came out at 55000 M⁻¹ cm⁻¹.

Consider `c1ccc(Cn2cccc2-c2nc(Nc3ccc4ccccc4c3)nc(Nc3ccc4ccccc4c3)n2)cc1` [Example 13, 2-(1-benzyl-1H-pyrrol-2-yl)-4,6-bis[naphthalen-2-ylamino]-1,3,5-triazine], for which the “UV λmax” value in data set [1] (MeOH) is 263 nm and 308 nm. Moreover, the εmax turned out to be 54000 M⁻¹ cm⁻¹ in data set [1] (MeOH, at λmax=263 nm) and 52000 M⁻¹ cm⁻¹ in data set [1] (MeOH, at λmax=308 nm).

For `C(=C\c1ccc(Nc2nc(Nc3ccc(/C=C/c4ccccc4)cc3)nc(-c3cccn3Cc3ccccc3)n2)cc1)/c1ccccc1` [Example 15, 2-(1-benzyl-1H-pyrrol-2-yl)-4,6-bis[4-(E)-styrylphenylamino]-1,3,5-triazine], in data set [1] (CHCl3), the “UV λmax” value worked out at 336 nm and the εmax worked out at 102000 M^1 cm^−1.

For the molecule `c1ccc(Cn2cccc2-c2nc(Nc3ccc(-c4cn5ccccc5n4)cc3)nc(Nc3ccc(-c4cn5ccccc5n4)cc3)n2)cc1` [Example 6, 2-(1-benzyl-1H-pyrrol-2-yl)-4,6-bis[4-(imidazo[1,2-a]pyridin-2-yl)phenylamino]-1,3,5-triazine], in data set [1] (ethanol), the “UV λmax” value came out at 332 nm and the εmax amounted to 71000 M⁻¹ cm⁻¹.

In the case of `CCCCC(CC)COC(=O)c1ccc(Nc2nc(Nc3ccc(C(=O)OCC(CC)CCCC)cc3)nc(-c3cccn3Cc3ccccc3)n2)cc1` (stereo not drawn) [Example 9, 2-(1-benzyl-1H-pyrrol-2-yl)-4,6-bis[4-((2-ethylhexyloxy)carbonyl)phenylamino]-1,3,5-triazine], in data set [1] (CHCl3/MeOH), the “UV λmax” value is recorded as 315 nm and the εmax was 76000 M⁻¹ cm⁻¹.

For the molecule `c1ccc(Cn2cccc2-c2nc(Nc3ccc(-c4nc5ccccc5[nH]4)cc3)nc(Nc3ccc(-c4nc5ccccc5[nH]4)cc3)n2)cc1` [Example 11, 2-(1-benzyl-1H-pyrrol-2-yl)-4,6-bis[4-(1H-benzo[d]imidazol-2-yl)phenylamino]-1,3,5-triazine], in data set [1] (CHCl3/MeOH), the “UV λmax” value amounted to 327 nm and the εmax is 100000 M^1 cm^−1.

Regarding `CCCCOC(=O)c1ccc(Nc2nc(Nc3ccc(C(=O)OCCCC)cc3)nc(-c3cccn3Cc3ccccc3)n2)cc1` [Example 2, 2-(1-benzyl-1H-pyrrol-2-yl)-4,6-bis[4-(butoxycarbonyl)phenylamino]-1,3,5-triazine], the melting point fell in the range of 173 to 174 °C. In data set [1] (chloroform), this molecule gave a εmax of 64000 M⁻¹ cm⁻¹ and a λmax of 312 nm.

As to `c1ccc(Cn2cccc2-c2nc(Nc3ccc(-n4cccn4)cc3)nc(Nc3ccc(-n4cccn4)cc3)n2)cc1` [Example 12, 2-(1-benzyl-1H-pyrrol-2-yl)-4,6-bis[4-(1H-pyrazol-1-yl)phenylamino]-1,3,5-triazine], in data set [1] (MeOH), the “UV λmax” value was 307 nm and the εmax is 67000 M⁻¹ cm⁻¹.

`O=C(c1ccccc1)c1ccc(Nc2nc(Nc3ccc(C(=O)c4ccccc4)cc3)nc(-c3cccn3Cc3ccccc3)n2)cc1` [Example 4, 2-(1-benzyl-1H-pyrrol-2-yl)-4,6-bis(4-benzoylphenylamino)-1,3,5-triazine] displayed a melting point of 115 to 118 °C. In data set [1] (ethanol), the “UV λmax” value was 330 nm and the εmax worked out at 80000 M⁻¹ cm⁻¹.

As to `O=C1c2ccccc2-c2cc(Nc3nc(Nc4ccc5c(c4)-c4ccccc4C5=O)nc(-c4cccn4Cc4ccccc4)n3)ccc21` [Example 5, 2-(1-benzyl-1H-pyrrol-2-yl)-4,6-bis(9-oxo-9H-fluoren-3-ylamino)-1,3,5-triazine], the melting point was in the range of 140 to 142 °C. In data set [1] (ethanol), the “UV λmax” value is 292 nm and the εmax amounted to 77000 M⁻¹ cm⁻¹.

The record behind these values is US20080253978A1, “Derivatives of Pyrrolyltriazine Together with Methods for Obtaining Them and Their Use as Protecting Agents Uv Radiation” (ISDIN, S.A., priority 2005, published 2008).
